Source: patent EP4813977A1, “NOVEL COMPOUND AND USE THEREOF” (Protier Biotech Inc., priority 2023, dated 2025)

Experiments:
[1] = test system: T-cell leukemia cell line Jurkat; test: Cell viability assay (Cell Counting Kit-8), Jurkat; format: cell-based; conditions: Homo sapiens, 72 hours, CCK-8, absorbance 450 nm
Experimental: (§1) To evaluate the cytotoxicity of the compounds synthesized in the Preparation Examples against cancer cells, a cell viability assay following treatment with the synthesized compounds was performed using a T-cell leukemia cell line Jurkat (KCLB, Cat# 40152), a human acute monocytic leukemia cell line MV-4-11 (ATCC, Cat# CRL-9591), and a human multiple myeloma cell line MM.1S (ATCC, Cat# CRL-2974).
(§2) As a culture medium for the cell lines, an RPMI medium containing 10 % heat-inactivated FBS and 1 % penicillin/streptomycin (P/S) antibiotics was used. The culture medium was stored refrigerated and warmed in a 37 °C water bath before use. Each cell line was used for the test after a stabilization period of at least 2 weeks after thawing, and cell culture was performed based on information provided by the cell line manufacturer regarding the thawing and subculture conditions.
(§3) The Jurkat, MV-4-11, or MM.1S cell line was seeded in a 96-well plate at a density of 1 × 10^4 cells/well and incubated in a 37 °C CO2 incubator overnight. After incubation, a prepared test compound was applied to each cell line, and the cells were incubated in a 37 °C CO2 incubator for 72 hours. After 72 hours of incubation, a Cell Counting Kit-8 (Dojindo, Cat# CK04-20) reagent was added, and the cells were incubated in a 37 °C CO2 incubator. Then, the absorbance was measured at 450 nm using a SpectraMax M3 Microplate Reader (N=2, duplicate measurement). The evaluation concentrations for evaluating the cytotoxicity of the compounds were 10 points: 100 µM, 20 µM, 4 µM, 0.8 µM, 0.16 µM, 0.032 µM, 0.0064 µM, 0.00128 µM, 0.000256 µM, and 0 µM, and the test was performed at 2 wells/concentration point (n=2). A GI50 was derived using a GraphPad Prism program.

Cereblon (CRBN) protein = molecular target: T1, Cereblon (CRBN) protein (Homo sapiens, UniProt Q96SW2); test: CRBN binding affinity, E3scan (Eurofins) competition binding with qPCR read-out; conditions: lower % Ctrl = stronger binding, DMSO = 100 % Ctrl, lenalidomide = 0 % Ctrl
T1 construct: purchased Eurofins (E3scan service); host or cells: HEK-293
Experimental: Specifically, CRBN was produced using a HEK-293 cell line and labeled with DNA for qPCR detection. Streptavidin-coated magnetic beads were treated with a biotinylated small-molecule ligand at room temperature for 30 minutes to generate an affinity resin for E3scan analysis. The liganded beads were blocked with excess biotin and washed with a blocking buffer (SeaBlock (Pierce), 1 % BSA, 0.05 % Tween 20, 1 mM DTT) to remove unbound ligands and prevent non-specific binding. […] The test compound was prepared as a 100× stock in 100 % DMSO and diluted directly into the assay solution. All reactions were performed in a polypropylene 384-well plate with a final reaction volume of 0.02 mL. […] The CRBN concentration in the eluate was measured by qPCR. […] A lower '% Ctrl' indicates a stronger binding affinity. […] ((test compound signal−positive control signal)/(negative control signal−positive control signal)) × 100 [formula]

[2] = test system: human multiple myeloma cell line MM.1S; test: Cell viability assay (Cell Counting Kit-8), MM.1S; format: cell-based; conditions: MM1.S, 72 hours, CCK-8, absorbance 450 nm
Experimental: as §1, §2, §3

O=C1CCC(N2Cc3cc(C(=O)c4ccccc4)ccc3C2=O)C(=O)N1 (stereo not drawn) [Compound 1, 3-(5-benzoyl-1-oxoisoindolin-2-yl)piperidine-2,6-dione]
GI50 [1]: 0.1 to 1 µM
CRBN binding affinity (% Ctrl @ 5µM) (Cereblon (CRBN) protein): C (1 ≤ % Ctrl' < 10)

O=C1CCC(N2Cc3nc(C(=O)c4ccccc4)ccc3C2=O)C(=O)N1 (stereo not drawn) [Compound 5, 3-(2-benzoyl-5-oxo-5,7-dihydro-6H-pyrrolo[3.4-b]pyridin-6-yl)piperidine-2,6-dione]
CRBN binding affinity (% Ctrl @ 5µM) (Cereblon (CRBN) protein): C (1 ≤ % Ctrl' < 10)

O=C1CCC(N2Cc3cc(C(=O)n4ncc5ccccc54)ccc3C2=O)C(=O)N1 (stereo not drawn) [Compound 6, 3-(5-(1H-indazole-1-carbonyl)-1-oxoisoindolin-2-yl)piperidine-2,6-dione]
CRBN binding affinity (% Ctrl @ 5µM) (Cereblon (CRBN) protein): A (0 ≤ '% Ctrl' < 0.1)

O=C1CCC(N2Cc3cc(C(=O)N4CCCC4)ccc3C2=O)C(=O)N1 (stereo not drawn) [Compound 7, 3-(1-oxo-5-(pyrrolidine-1-carbonyl)isoindolin-2-yl)piperidine-2,6-dione]
CRBN binding affinity (% Ctrl @ 5µM) (Cereblon (CRBN) protein): A (0 ≤ '% Ctrl' < 0.1)

O=C1CCC(N2Cc3cc(C(=O)c4c[nH]c5ccc(Cl)cc45)ccc3C2=O)C(=O)N1 (stereo not drawn) [Compound 8, 3-(5-(5-chloro-1H-indole-3-carbonyl)-1-oxoisoindolin-2-yl)piperidine-2,6-dione]
GI50 [1]: ≤ 0.1 µM

O=C1CCC(N2Cc3cc(C(=O)c4cc5cc(F)ccc5[nH]4)ccc3C2=O)C(=O)N1 (stereo not drawn) [Compound 9, 3-(5-(5-fluoro-1H-indole-2-carbonyl)-1-oxoisoindolin-2-yl)piperidine-2,6-dione]
GI50 [1]: ≤ 0.1 µM
GI50 [2]: ≤ 0.1 µM

O=C1CCC(N2C(=O)c3ccc(C(=O)c4cc5ccccc5[nH]4)cc3C2=O)C(=O)N1 (stereo not drawn) [Compound 10, 2-(2,6-dioxopiperidin-3-yl)-5-(1H-indole-2-carbonyl)isoindoline-1,3-dione]
GI50 [1]: 1 to 10 µM
CRBN binding affinity (% Ctrl @ 5µM) (Cereblon (CRBN) protein): C (1 ≤ % Ctrl' < 10)

O=C1CCC(N2Cc3cc(C(=O)C4CCN(Cc5ccccc5)CC4)ccc3C2=O)C(=O)N1 (stereo not drawn) [Compound 11, 3-(5-(1-benzylpiperidine-4-carbonyl)-1-ox.oisoindolin-2-yl)piperidine-2,6-dione]
CRBN binding affinity (% Ctrl @ 5µM) (Cereblon (CRBN) protein): A (0 ≤ '% Ctrl' < 0.1)

O=C1CCC(N2Cc3cc(C(=O)c4ccccn4)ccc3C2=O)C(=O)N1 (stereo not drawn) [Compound 12, 3-(1-oxo-5-picolinoylisoindelin-2-yi)piperidine-2,6-dione]
CRBN binding affinity (% Ctrl @ 5µM) (Cereblon (CRBN) protein): A (0 ≤ '% Ctrl' < 0.1)

O=C1CCC(N2Cc3cc(C(=O)c4cccc(Nc5ccccc5)c4)ccc3C2=O)C(=O)N1 (stereo not drawn) [Compound 16, 3-(1-oxo-5-(3-(phenylamino)benzoyl)isoindolin-2-yl)piperidine-2,6-dione]
GI50 [1]: 1 to 10 µM
CRBN binding affinity (% Ctrl @ 5µM) (Cereblon (CRBN) protein): A (0 ≤ '% Ctrl' < 0.1)

O=C1CCC(N2Cc3cc(C(=O)c4c[nH]c5ccc(-c6ccccc6)cc45)ccc3C2=O)C(=O)N1 (stereo not drawn) [Compound 24, 3-(1-oxo-5-(5-phenyl-1H-indole-3-carbonyl)isoindolin-2-yl)piperidine-2,6-dione]
CRBN binding affinity (% Ctrl @ 5µM) (Cereblon (CRBN) protein): D (10 ≤ '% Ctrl' < 35)

O=C1CCC(N2Cc3cc(C(=O)c4cn(-c5ccccc5)c5ccc(-c6ccccc6)cc45)ccc3C2=O)C(=O)N1 (stereo not drawn) [Compound 25, 3-(5-(1,5-diphenyl-1H-indole-3-carbonyl)-1-oxoisoindolin-2-yl)piperidine-2,6-dione]
CRBN binding affinity (% Ctrl @ 5µM) (Cereblon (CRBN) protein): D (10 ≤ '% Ctrl' < 35)

O=C1CCC(N2Cc3cc(C(=O)c4cccc(-c5ccccc5)c4)ccc3C2=O)C(=O)N1 (stereo not drawn) [Compound 26, 3-(5-([1,1'-biphenyl]-3-carbonyl)-1-oxoisoindolin-2-yl)piperidine-2,6-dione]
GI50 [1]: 1 to 10 µM
CRBN binding affinity (% Ctrl @ 5µM) (Cereblon (CRBN) protein): A (0 ≤ '% Ctrl' < 0.1)

O=C1CCC(N2Cc3cc(C(=O)c4ccc(-c5ccccc5)[nH]4)ccc3C2=O)C(=O)N1 (stereo not drawn) [Compound 28, 3-(1-oxo-5-(5-phenyl-1H-pyrrole-2-carbonyl)isoindolin-2-yl)piperidine-2,6-dione]
GI50 [1]: 0.1 to 1 µM
CRBN binding affinity (% Ctrl @ 5µM) (Cereblon (CRBN) protein): C (1 ≤ % Ctrl' < 10)

O=C1CCC(N2Cc3cc(C(=O)c4cc(-c5ccccc5)cs4)ccc3C2=O)C(=O)N1 (stereo not drawn) [Compound 30, 3-(1-oxo-5-(4-phenylthiophene-2-carbonyl)isoindolin-2-yl)piperidine-2,6-dione]
GI50 [1]: 0.1 to 1 µM
CRBN binding affinity (% Ctrl @ 5µM) (Cereblon (CRBN) protein): A (0 ≤ '% Ctrl' < 0.1)

O=C1CCC(N2Cc3cc(C(=O)c4cn(Cc5ccccc5)c5ccccc45)ccc3C2=O)C(=O)N1 (stereo not drawn) [Compound 32, 3-(5-(1-benzyl-1H-indole-3-carbonyl)-1-oxoisoindolin-2-yl)piperidine-2.6-dione]
GI50 [1]: 0.1 to 1 µM

O=C1CCC(N2Cc3cc(C(=O)N4Cc5ccccc5C4)ccc3C2=O)C(=O)N1 (stereo not drawn) [Compound 36, 3-(5-(isoindoline-2-carbonyl)-1-oxoisoindolin-2-yl)piperidine-2,6-dione]
GI50 [1]: ≤ 0.1 µM
CRBN binding affinity (% Ctrl @ 5µM) (Cereblon (CRBN) protein): A (0 ≤ '% Ctrl' < 0.1)

O=C1CCC(N2Cc3cc(C(=O)C4CCCC4)ccc3C2=O)C(=O)N1 (stereo not drawn) [Compound 39, 3-(5-(cyclopentanecarbonyl)-1-oxoisoindolin-2-yl)piperidine-2,6-dione]
GI50 [1]: 1 to 10 µM

O=C1CCC(N2Cc3cc(C(=O)c4ccc(F)cc4)ccc3C2=O)C(=O)N1 (stereo not drawn) [Compound 40, 3-(5-(4-fluorobenzoyl)-1-oxoisoindolin-2-yl)piperidine-2,6-dione]
GI50 [1]: 0.1 to 1 µM

O=C1CCC(N2Cc3cc(C(=O)c4ccc(N5CCCCC5)cc4)ccc3C2=O)C(=O)N1 (stereo not drawn) [Compound 41, 3-(1-oxo-5-(4-(piperidin-1-yl)benzoyl)isoindolin-2-yl)piperidine-2,6-dione]
GI50 [1]: 0.1 to 1 µM

O=C1CCC(N2Cc3cc(C(=O)c4cccc5ccccc45)ccc3C2=O)C(=O)N1 (stereo not drawn) [Compound 43, 3-(5-(1-naphthoyl)-1-oxoisoindolin-2-yl)piperidine-2,6-dione]
GI50 [1]: 1 to 10 µM

O=C1CCC(N2Cc3cc(C(=O)c4ccc(OC(F)(F)F)cc4)ccc3C2=O)C(=O)N1 (stereo not drawn) [Compound 45, 3-(1-oxo-5-(4-(trifluoromethoxy)benzoyl)isoindolin-2-yl)piperidine-2,6-dione]
GI50 [1]: 0.1 to 1 µM

O=C1CCC(N2Cc3cc(C(=O)c4ccc(Cl)cc4)ccc3C2=O)C(=O)N1 (stereo not drawn) [Compound 48, 3-(5-(4-chlorobenzoyl)-1-oxoisoindolin-2-yl)piperidine-2,6-dione]
GI50 [1]: 0.1 to 1 µM

O=C1CCC(N2Cc3cc(C(=O)c4ccc(C(F)(F)F)cc4)ccc3C2=O)C(=O)N1 (stereo not drawn) [Compound 50, 3-(1-oxo-5-(4-(trifluoromethyl)benzoyl)isoindolin-2-yl)piperidine-2,6-dione]
GI50 [1]: 0.1 to 1 µM

COc1ccc(C(=O)c2ccc3c(c2)CN(C2CCC(=O)NC2=O)C3=O)cc1 (stereo not drawn) [Compound 51, 3-(5-(4-methoxybenzoyl)-1-oxoisoindolin-2-yl)piperidine-2,6-dione]
GI50 [1]: 0.1 to 1 µM

O=C1CCC(N2Cc3cc(C(=O)c4ccc(OCc5ccccc5)cc4)ccc3C2=O)C(=O)N1 (stereo not drawn) [Compound 53, 3-(5-(4-(benzyloxy)benzoyl)-1-oxoisoindolin-2-yl)piperidine-2,6-dione]
GI50 [1]: 0.1 to 1 µM

Cc1ccc(C(=O)c2ccc3c(c2)CN(C2CCC(=O)NC2=O)C3=O)cc1 (stereo not drawn) [Compound 54, 3-(5-(4-methylbenzoyl)-1-oxoisoindolin-2-yl)piperidine-2,6-dione]
GI50 [1]: 0.1 to 1 µM

Cc1cccc(C(=O)c2ccc3c(c2)CN(C2CCC(=O)NC2=O)C3=O)c1 (stereo not drawn) [Compound 61, 3-(5-(3-methylbenzoyl)-1-oxoisoindolin-2-yl)piperidine-2,6-dione]
GI50 [1]: ≤ 0.1 µM

Nc1ccc(C(=O)c2ccc3c(c2)CN(C2CCC(=O)NC2=O)C3=O)cc1 (stereo not drawn) [Compound 64, 3-(5-(4-aminobenzoyl)-1-oxoisoindolin-2-yl)piperidine-2,6-dione]
GI50 [1]: 0.1 to 1 µM

O=C1CCC(N2Cc3cc(C(=O)c4ccc[nH]4)ccc3C2=O)C(=O)N1 (stereo not drawn) [Compound 73, 3-(1-oxo-5-(1H-pyrrole-2-carbonyl)isoindolin-2-yl)piperidine-2,6-dione]
GI50 [1]: ≤ 0.1 µM

O=C1CCC(N2Cc3cc(C(=O)c4ccc5ncsc5c4)ccc3C2=O)C(=O)N1 (stereo not drawn) [Compound 76, 3-(5-(benzo[d]thiazole-6-carbonyl)-1-oxoisoindolin-2-yl)piperidine-2,6-dione]
GI50 [1]: ≤ 0.1 µM
